Measured values from PMC6204753, “Non-native autoinducer analogs capable of modulating the SdiA quorum sensing receptor in Salmonella enterica serovar Typhimurium” (Beilstein Journal of Organic Chemistry, 2018).

Molecular target: SdiA (Salmonella enterica subsp. enterica serovar Typhimurium, UniProt O66040)
Test: S. Typhimurium-pJNS25 SdiA reporter, competitive antagonism against 10 nM L-OOHL
Assay type: cell-based
Conditions: average ± STD, change in activity from 10 nM 2 (OOHL); for Antagonism 1 μM Inhibition (%): 1 μM compound; for Antagonism 100 μM Inhibition (%): 100 μM compound
Source text: Biological assays for SdiA activity. Cell-based reporter strains that rely on detecting the transcriptional activity of LuxR-type receptors are commonly used to assess the activity of exogenous ligands. We used the S. Typhimurium-pJNS25 reporter strain constructed by Smith and Ahmer and also used by Janssens et al. to examine SdiA activity. This strain naturally produces SdiA and contains a reporter plasmid with the promoter region for srgE fused to the luxABCDE operon of V. fischeri (see Experimental section for details of all strains and plasmids). SdiA activity is thus reported by the production of luciferase and resulting bioluminescence. We also prepared an SdiA reporter in E. coli (JLD271-pJN105SE-pSC11SE) to examine S. Typhimurium SdiA activity in an alternate background and with a different reporter gene output. […] This reporter construct uses an arabinose inducible promoter to produce S. Typhimurium SdiA and the promoter region for srgE fused to lacZ to report SdiA activity. SdiA activity is then measured using standard β-galactosidase assays. In both reporter strains, signal was normalized to the difference between the positive control (10 μM OOHL) and the negative control (1% DMSO; no compound).
Salmonella SdiA reporter assay. S. Typhimurium-pJNS25 was grown 16–18 h overnight in LB, diluted 1:100 in fresh LB medium, and then incubated for 6 h at 37 °C with shaking at 200 rpm in the presence of compounds (1% DMSO). […] All compounds were screened at 100 μM and 1 μM in triplicate in agonism and antagonism assays. […] Dose–response analyses were performed by preparing dilutions of compounds in DMSO and testing each concentration in the agonism or antagonism assays. Competition dose–response assays (data in Figure 5) were performed in the same manner as the antagonism assays, except instead of OOHL being added to the subculture, the antagonist being tested was added. Non-linear regression curve fits were generated using GraphPad Prism software (version 6) using variable slope (four parameter) dose–response analysis.

Sequence of SdiA (O66040 entry or part of it): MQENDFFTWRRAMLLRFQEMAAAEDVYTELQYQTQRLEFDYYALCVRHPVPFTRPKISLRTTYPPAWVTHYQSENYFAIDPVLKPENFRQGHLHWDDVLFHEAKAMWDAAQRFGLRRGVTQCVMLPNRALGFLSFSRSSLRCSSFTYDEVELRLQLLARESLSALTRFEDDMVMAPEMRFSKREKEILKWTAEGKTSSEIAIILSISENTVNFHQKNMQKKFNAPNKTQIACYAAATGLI

Row | Compound | Antagonism 1 μM Inhibition (%) | Antagonism 100 μM Inhibition (%)
1 | O=C(CCc1cccc(Br)c1)N[C@H]1CCOC1=O [E31] | 13 ± 10 | 6 ± 6
2 | Cc1ccc(C(=O)CCC(=O)N[C@H]2CCOC2=O)cc1 [D6] | 21 ± 19 | 3 ± 12
3 | CCCCCC(O)CC(=O)N[C@H]1CCOC1=O (stereo partly drawn) [H2] | 8 ± 5 | 12 ± 16
4 | O=C(N[C@H]1CCOC1=O)c1ccc(Cl)cc1 [Q4] | 30 ± 4 | -25 ± 15
5 | O=C(C=Cc1ccccc1)NC1CCOC1=O (stereo not drawn) [B10] | 16 ± 5 | -56 ± 11
6 | O=C(N[C@H]1CCOC1=O)c1ccc2c(c1)OCO2 [Q11] | 7 ± 7 | -2 ± 12
7 | O=C(CCc1ccc2c(c1)OCO2)N[C@H]1CCOC1=O [E39] | 10 ± 15 | 12 ± 3
8 | CCCCCCCCCC(=O)CC(=O)NC1CCCCC1=O (stereo not drawn) [compound 15, reference compound] | 16 ± 16 | 13 ± 8
9 | O=C(N[C@H]1CCOC1=O)c1ccc(-c2csnn2)cc1 [D10] | 23 ± 6 | 14 ± 12
10 | O=C(Cc1ccc(C(F)(F)F)cc1)N[C@H]1CCOC1=O [C20] | 15 ± 10 | 8 ± 6
11 | CC(C)(C)OC(=O)Nc1ccc(C(=O)N[C@H]2CCOC2=O)cc1 [Q13] | 19 ± 8 | -14 ± 2
12 | CCCCCCCCCC(=O)CC(=O)N[C@H]1CCOC1=O [compound 1, reference compound] | 2 ± 17 | 15 ± 16
13 | O=C(N[C@H]1CCOC1=O)c1ccc(-c2ccccc2)cc1 [Q12] | 20 ± 9 | 26 ± 14
14 | O=C(CCCc1c[nH]c2ccccc12)N[C@@H]1CCOC1=O [B5] | 30 ± 15 | -8 ± 5
15 | O=C(COc1cccc([N+](=O)[O-])c1)N[C@H]1CCOC1=O [E25] | 5 ± 18 | 9 ± 12
16 | CCCCCCC(=O)N[C@H]1CCSC1=O [F6] | 5 ± 5 | -2 ± 7
17 | CCCOc1ccc(C(=O)N[C@H]2CCOC2=O)cc1 [R2] | 16 ± 9 | 11 ± 6
18 | O=C(CC(=O)N[C@H]1CCOC1=O)Cc1ccccc1 [compound 5, reference compound] | 23 ± 9 | 17 ± 3
19 | CCCCOc1ccc(C(=O)N[C@H]2CCOC2=O)cc1 [R4] | 23 ± 9 | 11 ± 12
20 | O=C(N[C@H]1CCOC1=O)c1ccc(Br)cc1 [B6] | 25 ± 11 | -14 ± 17

Row | Compound | Antagonism 1 μM Inhibition (%) | Antagonism 100 μM Inhibition (%)
21 | O=C(Cc1c(F)c(F)c(F)c(F)c1F)N[C@H]1CCOC1=O [C16] | 5 ± 3 | -32 ± 18
22 | O=C(Cc1c[nH]c2ccccc12)N[C@H]1CCOC1=O [B13] | 8 ± 10 | 13 ± 13
23 | O=C(Cc1ccc([N+](=O)[O-])cc1)N[C@H]1CCOC1=O [C13] | 24 ± 4 | 14 ± 9
24 | CCCCCOc1ccc(C(=O)N[C@H]2CCOC2=O)cc1 [R5] | 10 ± 18 | -1 ± 9
25 | O=C(N[C@H]1CCOC1=O)C1CCCCC1 [S5] | 19 ± 4 | 13 ± 10
26 | O=C(Cc1ccc(Br)cc1)N[C@H]1CCSC1=O [F10] | 8 ± 12 | -3 ± 7
27 | O=C(N[C@H]1CCOC1=O)c1ccccc1Br [Q1] | 2 ± 5 | -3 ± 18
28 | O=C(Cc1cccc(F)c1)N[C@H]1CCOC1=O [C3] | -1 ± 15 | -18 ± 12
29 | O=C(Cc1ccccc1Cl)N[C@H]1CCOC1=O [C7] | 22 ± 6 | -32 ± 5
30 | O=C(Cc1cc(C(F)(F)F)cc(C(F)(F)F)c1)N[C@H]1CCOC1=O [E9] | 18 ± 8 | 21 ± 8
31 | O=C(N[C@H]1CCOC1=O)c1cnn(-c2ccccc2)c1C(F)(F)F [D9] | 26 ± 6 | 9 ± 1
32 | O=C(N[C@H]1CCOC1=O)c1ccccc1 [B8] | 26 ± 3 | -13 ± 11
33 | COc1ccc(CCC(=O)N[C@H]2CCOC2=O)cc1 [E28] | 11 ± 18 | 6 ± 15
34 | O=C(Cc1ccc(SC(F)(F)F)cc1)N[C@H]1CCOC1=O [E8] | 34 ± 11 | 31 ± 7
35 | CCOc1ccc(CC(=O)N[C@H]2CCOC2=O)cc1 [C25] | 12 ± 8 | 7 ± 5
36 | O=C(NCc1cc(Br)cc(Br)c1OC(=O)c1ccccc1[N+](=O)[O-])c1ccccc1Cl [19P, reference compound] | 39 ± 16 | 25 ± 16
37 | O=C(Cc1cccc([N+](=O)[O-])c1)NCc1cccc([N+](=O)[O-])c1 [F55] | 11 ± 4 | 26 ± 7
38 | CCCCCCCCCC(=O)N[C@H]1CCOC1=O [A4] | 12 ± 19 | 18 ± 7
39 | O=C(Cc1ccc2ccccc2c1)N[C@H]1CCOC1=O [E12] | -13 ± 9 | 0 ± 15
40 | O=C(CCc1ccccc1)N[C@H]1CCOC1=O [B9] | 13 ± 10 | 18 ± 14

Row | Compound | Antagonism 1 μM Inhibition (%) | Antagonism 100 μM Inhibition (%)
41 | Nc1ccc(CC(=O)N[C@H]2CCOC2=O)cc1 [C21] | 4 ± 12 | 13 ± 4
42 | O=C(N[C@H]1CCOC1=O)c1cccc(Br)c1 [Q2] | 17 ± 2 | 9 ± 13
43 | [N-]=[N+]=Nc1ccc(CC(=O)N[C@H]2CCOC2=O)cc1 [C17] | 13 ± 11 | 9 ± 6
44 | O=C(CC(=O)N[C@H]1CCOC1=O)Cc1cccc(Cl)c1 [H23] | 12 ± 8 | 1 ± 9
45 | O=C(CCc1ccc([N+](=O)[O-])cc1)N[C@H]1CCOC1=O [E37] | 34 ± 5 | 23 ± 5
46 | CC(C)Oc1ccc(C(=O)N[C@H]2CCOC2=O)cc1 [R3] | 23 ± 8 | 11 ± 10
47 | CCCCCCC(=O)N[C@H]1CCOC1=O [compound 4, reference compound] | 26 ± 4 | 16 ± 5
48 | O=C(Cc1ccccc1)N[C@H]1CCOC1=O [C1] | 9 ± 12 | -6 ± 5
49 | O=C(CCc1cccs1)N[C@H]1CCOC1=O [D3] | 10 ± 2 | 6 ± 9
50 | CCCCCS(=O)(=O)N[C@H]1CCOC1=O [A9] | 10 ± 9 | 13 ± 2
51 | CCCCCCCCCCCCCC(O)CC(=O)N[C@H]1CCOC1=O (stereo partly drawn) [H6] | 15 ± 1 | 15 ± 13
52 | CCCCCC(=O)N[C@H]1CCSC1=O [F7] | 7 ± 9 | -12 ± 4
53 | O=C(Cc1ccc(Br)cc1)N[C@H]1CCOC1=O [compound 7, reference compound] | 26 ± 9 | 21 ± 10
54 | O=C(Cc1ccc(Cl)cc1)N[C@H]1CCOC1=O [C5] | 13 ± 6 | 18 ± 7
55 | CCOc1ccc(C(=O)N[C@H]2CCOC2=O)cc1 [R1] | 22 ± 6 | 13 ± 8
56 | O=C(N[C@H]1CCOC1=O)C1CCCC1 [S4] | 27 ± 11 | -8 ± 11
57 | CCCCCCCCCCCCCC(=O)CC(=O)N[C@H]1CCOC1=O [H25] | 1 ± 13 | -9 ± 15
58 | O=C(Cc1ccc(F)cc1)N[C@H]1CCOC1=O [C2] | 2 ± 8 | -8 ± 18
59 | O=C(CCc1cccc([N+](=O)[O-])c1)N[C@H]1CCOC1=O [E38] | 15 ± 11 | 32 ± 6
60 | O=C(Cc1ccccc1[N+](=O)[O-])N[C@H]1CCOC1=O [C15] | 5 ± 2 | -17 ± 18
